Data: patent US20090143279A1 (priority 2007, published 2009)
Several values for one entry are separate records, joined by “and”; a condition that tells them apart may be missing. Equal values may be shown once. Read-outs that look alike come from different tables or passages of the source.

Legend:
[1] = tested on: mitochondrial membrane potential; format: cell-based, mouse
cytochrome c = format: cell-based, mouse
[2] = tested on: cellular dehydrogenase activity
reactive oxygen species = format: cell-based, mouse
[3] = composite Z-score vs DMSO, Conc 20 μM
[4] = composite Z-score vs mock-treated (DMSO) wells, Conc 20 μM
[5] = Table 4, C2C12 myotubes, 48 h, JC-1, composite Z-score
[6] = Table 4, C2C12 myotubes, 48 h, composite Z-score

Compound	ΔΨm [1]	MTT [2]	ROS (reactive oxygen species)	Viability (C2C12 myotubes)	other results
C[C@@]1(O)CCOC(=O)C1 (racemic) [mevalonic-DL-acid lactone]	−0.183	–	–	–	cyt c (cytochrome c): −0.252
C[C@@H](N)[C@@H](O)c1ccccc1 [1S,2R-phenylpropanolamine]	−0.137	−1.507	0.721	0.296	cyt c (cytochrome c; [3]): 0.280
O=C(O)CCCOc1ccc(Cl)cc1Cl [2,4-dichlorophenoxybutyric acid]	−0.479	−1.368	0.758	0.337	cyt c (cytochrome c): 0.711
C[C@]12CC[C@@H](O)C[C@H]1CC[C@@H]1[C@@H]2CC[C@]2(C)C(=O)CC[C@@H]12 [3-alpha-hydroxy-5-beta-androstan-17-one]	−1.010	−1.534	1.400	–	cyt c (cytochrome c): 0.285
CC(C)NC[C@@H](O)COc1ccc(CC(N)=O)cc1 [(R)-(+)-atenolol]	−0.573	−1.053	1.639	−0.846	cyt c (cytochrome c): −0.033
COc1ccc2cc([C@@H](C)C(=O)[O-])ccc2c1.[Na+] [(R)-naproxen sodium salt]	−0.253	0.325	−0.736	0.632	cyt c (cytochrome c): 0.444
N#CC(C#N)=NNc1cccc(Cl)c1 [CCCP, carbonyl cyanide m-chlorophenylhydrazone, reference compound]	–	–	–	–	mitochondrial membrane potential ([1]; assay control, FIG. 3-3): depolarization
CC([C@H](O)c1ccccc1)N(C)C (stereo partly drawn) [N-methyl (−)ephedrine]	−0.068	–	–	–	–
CCN(CC)C(=O)N[C@H]1C[C@@H]2c3cccc4[nH]cc(c34)C[C@H]2N(C)C1 [S(+)-terguride]	−0.585	–	–	–	–
Cc1c(N(C)C)c(=O)n(-c2ccccc2)n1C [amidopyrine]	−0.496	−0.051	−0.776	0.691	cyt c (cytochrome c): 0.748
C[C@@H]1[C@H](O)[C@@H](C)/C=C/C=C/C=C/C=C/C=C/C=C/C=C/[C@H](O[C@@H]2O[C@H](C)[C@@H](O)[C@H](N)[C@@H]2O)C[C@@H]2O[C@](O)(C[C@@H](O)C[C@@H](O)[C@H](O)CC[C@@H](O)C[C@@H](O)CC(=O)O[C@H]1C)C[C@H](O)[C@H]2C(=O)O [amphotericin B]	0.308	−0.790	0.005	1.210	cyt c (cytochrome c): −0.982
CC1(C)S[C@@H]2[C@H](NC(=O)Cc3ccccc3)C(=O)N2[C@H]1C(=O)O.CC1(C)S[C@@H]2[C@H](NC(=O)Cc3ccccc3)C(=O)N2[C@H]1C(=O)O.c1ccc(CNCCNCc2ccccc2)cc1 [benzathine benzylpenicillin]	0.729	–	–	–	–
CC(=O)[O-].CC(=O)[O-].[Cd+2] [cadmium acetate]	−1.276	−1.896	−1.066	−1.393	cyt c (cytochrome c): −2.166
CC1(C)C(=O)C=C[C@@]2(C)C1=C(O)C(=O)[C@]1(C)[C@@H]2CC[C@@]2(C)[C@H](c3ccoc3)C[C@H]3O[C@]321 [cedrelone]	–	–	–	–	ΔΨm [1, 4]: −3.459; cyt c (cytochrome c; [4]): −5.998; MTT [2, 4]: −6.617; ROS (reactive oxygen species; [4]): −3.982; Viability (C2C12 myotubes; [4]): −4.680
CC1=C(O)C(=O)C=C2C1=CC=C1[C@@]2(C)CC[C@@]2(C)[C@@H]3C[C@](C)(C(=O)O)CC[C@]3(C)CC[C@]12C [celastrol]	–	–	–	–	ΔΨm [1, 3]: −3.520; cyt c (cytochrome c; [3]): −5.979; MTT [2, 3]: −6.584; ROS (reactive oxygen species; [3]): −2.732; Viability (C2C12 myotubes; [3]): −4.797
Cc1cc(C2CCCCC2)n(O)c(=O)c1.NCCO [ciclopirox ethanolamine]	2.994	−2.239	−1.968	0.101	cyt c (cytochrome c): −0.351
Clc1ccccc1C(c1ccccc1)(c1ccccc1)n1ccnc1 [clotrimazole]	–	–	2.521	0.099	–
COc1cc2c(cc1OC)[C@@H]1C(=O)c3ccc4c(c3O[C@@H]1CO2)C=CC(C)(C)O4 [deguelin(−), reference compound]	–	–	–	–	ΔΨm [1, 5]: 1.451; MTT [2, 6]: −4.052; ROS (reactive oxygen species; [6]): 0.426; Viability (C2C12 myotubes; [6]): −0.940
C[C@@H]1CC[C@@]23CCC4(C)[C@@](C=CC5[C@@]6(C)CC[C@H](O)C(C)(C)C6CC[C@]54C)(OC2=O)C3[C@H]1C (stereo partly drawn) [dehydro (11,12)ursolic acid lactone]	−0.429	0.402	0.385	−0.003	cyt c (cytochrome c; normalized composite Z-score vs mock-treated (DMSO) wells, Conc 20 μM): −0.175
C[C@@H]1C[C@H]2[C@@H]3CCC4=CC(=O)C=C[C@]4(C)[C@@]3(F)[C@@H](O)C[C@]2(C)[C@@]1(O)C(=O)CO [dexamethasone]	0.240 and 0.273	–	–	–	–
CC(C)=CCCC1(C)C=Cc2c(O)c3c(c(CC=C(C)C)c2O1)OC12C(=CC4CC1C(C)(C)OC2(C/C=C(/C)C(=O)O)C4O)C3=O (stereo not drawn) [dihydrogambogic acid]	–	–	–	–	ΔΨm [1, 4]: −3.431; cyt c (cytochrome c; [4]): −5.191; MTT [2, 4]: −6.208; ROS (reactive oxygen species; [4]): −2.239; Viability (C2C12 myotubes; [4]): −5.468
OCCN(CCO)c1nc(N2CCCCC2)c2nc(N(CCO)CCO)nc(N3CCCCC3)c2n1 [dipyridamole]	0.298 and 0.474	–	–	2.069 and 1.042	cyt c (cytochrome c): 0.377 and 0.276
Oc1ccc([C@H]2Oc3cc(O)cc(O)c3C[C@H]2O)cc1 [epiafzelechin(2r,3r)(−), reference compound]	–	–	–	–	ΔΨm [1, 5]: −3.118; MTT [2, 6]: −0.486; ROS (reactive oxygen species; [6]): 1.019; Viability (C2C12 myotubes; [6]): −0.719
COc1ccc2c(c1)CC[C@@H]1[C@@H]2CC[C@]2(C)[C@@H](O)[C@H](O)C[C@@H]12 [estriol methyl ether]	−0.046	−1.611	0.299	0.054	cyt c (cytochrome c; [3]): 0.241

Compound	ΔΨm [1]	MTT [2]	ROS (reactive oxygen species)	Viability (C2C12 myotubes)	other results
CC(C)n1c(/C=C/C(O)CC(O)CC(=O)O)c(-c2ccc(F)cc2)c2ccccc21 (stereo not drawn) [fluvastatin, reference compound]	–	–	–	–	MTT activity ([2]; screen, FIG. 9a, in words): strong decreases
CC(=O)N(CC(O)CO)c1c(I)c(C(=O)NCC(O)CO)c(I)c(C(=O)NCC(O)CO)c1I (stereo not drawn) [iohexol]	−0.970	−1.085	0.568	−0.374	cyt c (cytochrome c): 0.080
CC(C)[N+]1(C)[C@@H]2CC[C@H]1C[C@@H](OC(=O)C(CO)c1ccccc1)C2 (stereo partly drawn) [ipratropium]	–	–	1.245	–	–
CC(C(=O)O)c1cccc(C(=O)c2ccccc2)c1 (stereo not drawn) [ketoprofen]	–	–	0.545	–	–
N[C@@H](C(=O)N[C@@H]1C(=O)N2C(C(=O)O)=C(Cl)CC[C@H]12)c1ccccc1 [loracarbef]	−0.229	−0.158	−0.236	0.317	cyt c (cytochrome c): 0.622
CC[C@H](C)C(=O)O[C@H]1C[C@@H](C)C=C2C=C[C@H](C)[C@H](CC[C@@H]3C[C@@H](O)CC(=O)O3)[C@H]21 [lovastatin, reference compound]	–	–	–	–	cyt c (composite Z-score vs DMSO) (cytochrome c): −1.628; MTT activity [2]: strong decreases
COC(=O)Nc1nc2ccc(SC(C)C)cc2[nH]1 [methiazole, reference compound]	–	–	–	–	ΔΨm [1, 5]: 0.040; MTT [2, 6]: −0.654; ROS (reactive oxygen species; [6]): −2.515; Viability (C2C12 myotubes; [6]): −0.683
CC [methylmethane]	−0.924	−1.330	0.909	−1.159	cyt c (cytochrome c): 0.221
CS(=O)(=O)Nc1ccc([N+](=O)[O-])cc1Oc1ccccc1 [nimesulide]	–	–	1.468 and 1.174	–	–
COC1=CC(=O)C(O)=C/C1=C\C=C\c1ccccc1 [obtusaquinone]	–	–	–	–	ΔΨm [1, 3]: −3.829; cyt c (cytochrome c; [3]): −5.381; MTT [2, 3]: −6.409; ROS (reactive oxygen species; [3]): −1.119; Viability (C2C12 myotubes; [3]): −4.658
CCC1(c2ccc(N)cc2)CCC(=O)NC1=O (stereo not drawn) [para-aminoglutethimide]	−0.416	–	–	–	–
C[C@]12C=CC(=O)C=C1CC[C@@H]1[C@@H]2[C@@H](O)C[C@@]2(C)[C@H]1CC[C@]2(O)C(=O)CO [prednisolone]	–	–	0.248	–	–
CC(=O)[C@H]1CC[C@H]2[C@@H]3CC=C4C[C@@H](O)CC[C@]4(C)[C@H]3CC[C@]12C [pregnenolone]	0.542	–	–	–	–
C=C(C)[C@H]1Cc2c(ccc3c2O[C@@H]2COc4cc(OC)c(OC)cc4[C@@H]2C3=O)O1 [rotenone, reference compound]	–	–	–	–	MTT activity ([2]; assay control, FIG. 3-2): inhibited
CCC(C)(C)C(=O)O[C@H]1C[C@@H](C)C=C2C=C[C@H](C)[C@H](CC[C@@H]3C[C@@H](O)CC(=O)O3)[C@H]21 [simvastatin, reference compound]	–	–	–	–	MTT activity ([2]; screen, FIG. 9a, in words): strong decreases
CN[C@@H]1C[C@H]2O[C@@](C)([C@@H]1OC)n1c3ccccc3c3c4c(c5c6ccccc6n2c5c31)C(=O)NC4 [staurosporine, reference compound]	–	–	–	–	cell death (calcein) (C2C12 myotubes; assay control, FIG. 3-1): cell death in a dose dependent manner
Cc1cc(NS(=O)(=O)c2ccc(N)cc2)no1 [sulfamethoxazole]	–	–	1.114	–	–
CC1=C(CC(=O)O)c2cc(F)ccc2/C1=C\c1ccc([S+](C)[O-])cc1 (stereo not drawn) [sulindac]	–	–	–	0.777	–
COc1cc(Cc2cnc(N)nc2N)cc(OC)c1OC [trimethoprim]	–	–	1.375	–	–
(−)-MK 801	−0.786	–	–	–	–
amyleine	–	−0.719	–	–	–
methyl benzethonium chloride	0.480	−4.304	−1.501	−2.690	–
trisodium ethylenediamine tetracetate	0.474	−1.123	−0.436	−0.946	–
